Reference: EP1379634B1 (THE UNIVERSITY OF GEORGIA RESEARCH FOUNDATION, INC., priority 2001, dated 2002)
Residues, ends and D or L forms follow the SMILES beside them. *: point of attachment. Cbz = O=C(OCc1ccccc1)*; CH2F = FC*

Assays:
Taenia crassiceps cysts [1] = test: Short-term protection of BALB/c mice from cysticercosis infection; format: in vivo; conditions: repeat study, BALB/c mice
Taenia crassiceps cysts [2] = test: Scanning electron microscopy of cyst surfaces removed from treated mice; format: in vivo; conditions: cysts removed from treated BALB/c mice
Source text: • Figure 1. Free energy diagrams for various profiles and scenarios of enzyme catalysis; from Murphy, 1995. Biochemistry. 34(14):4507-4510: (a) Free energy diagrams for different concentrations of substrate S in catalyzed and in uncatalyzed reactions. Left panel: Profile I. S<Km such that enzyme is in a "loose" binding configuration with substrate. Right panel: Profile II. S>Km such that the enzyme is in a "tight" binding configuration with the substrate. Nomenclature below the figure indicates derivation of various free energy constants which are referred to in the text. […] In this scenario, the transition state is decreased from TSC1 to TSC2 resulting in a net increase of ΔGB from situation 1 to situation 2. […] Since ΔGES is unchanged in this plot, 100% of the additional binding energy is utilized for catalysis. This property and the increase in ΔAGb is the definition of a catalytic event driven by transition state stabilization, with the latter being the defining catalytic parameter; (c) free energy diagram for catalysis driven by ground state destabilization for a Profile II scenario where ES is decreased and TSC is not changed. From the left panel to the right panel, ES is decreased, whereas TS remains unchanged. Consequently, ΔΔGb remains constant although catalysis is noted (thus the free energy of enzyme/transition state binding is unchanged). […]

[3] = test system: normal BALB/c mouse splenocytes; test: Splenocyte proliferation (3H-thymidine incorporation) with or without Con-A; format: cell-based

## CC(C)C[C@H](NC(=O)OCc1ccccc1)C(=O)N[C@@H](CC(C)C)C(=O)N[C@@H](Cc1ccc(O)cc1)C(=O)CF [Z-LLY-FMK, Z-Leu-Leu-Tyr-FMK] (Cbz-Leu-Leu-Tyr-CH2F)
Taenia crassiceps cysts [1]
  protection from cysticercosis infection, subsequent identical prophylactic experiment: 75%-90%
Taenia crassiceps cysts [2]
  Immune cells observed by SEM on cyst surfaces: presence of adherent immune cells
[3]; inhibitor alone
  proliferative response (3H-thymidine incorporation): do not induce a proliferative response
[3]; preliminary results
  toxicity to splenocytes in vitro: nontoxic
